In patent US20220267380A1, “Glycopeptides Increasing Lipid Synthesis” (TFCHEM, priority 2019, published 2022):

System: normal human dermal fibroblasts (NHDF)
Assay: Gene expression in NHDF, full transcriptome analysis with Affymetrix U219 microarray
Assay type: cell-based
Conditions: 10 mg/ml
Description: In the present study, the transcriptional effects (modulation of gene expression) of compounds 1, 2, 3 and 4 were evaluated on normal human dermal fibroblasts (NHDF) under basal conditions.
More specifically, the comparative analysis of the different transcriptomic profiles was performed using an Affymetrix GeneAtlas platform and the human “full transcriptome” U219 chip, which includes 36,000 transcripts and variants.
Fibroblasts were seeded in 24-well plates and cultured in culture medium for 24 hours. The medium was then replaced by assay medium and cells were incubated for further 24 hours. The medium was replaced by assay medium containing or not (control) the test compounds at different concentrations and the cells were preincubated for 24 hours. All experimental conditions were performed in triplicate. At the end of incubation, the culture supernatants were removed and the cells were washed in a phosphate buffered saline (PBS) solution and immediately frozen at −80° C.
Before RNA extraction, the replicates were pooled. Total RNA was extracted from each sample using TriPure Isolation Reagent® according to the supplier's instructions. The amount and quality of total RNA were evaluated for all samples using capillary electrophoresis (Bioanalyzer 2100, Agilent technologies). From each RNA, a labeled and amplified anti-sens RNA (aRNA) was obtained using GeneChip 3′IVT PLUS Kit (Affymetrix). For each labeled and amplified aRNA sample the profiles were evaluated before and after fragmentation using capillary electrophoresis (Bioanalyzer 2100, Agilent technologies). Hybridization of fragmented aRNA onto Affymetrix® U219 chip (36,000 transcripts and variants) was performed in the GeneAtlas™ fluidics Affymetrix® hybridization station for 20 hours at 45° C. U219 chip was analyzed using the GeneAtlas™ Imaging station (Affymetrix®—resolution 2 μm) to generate fluorescence intensity data.
Expression Console and Quality controls: data were normalized with the Expression Console (Affymetrix®) software using RMA algorithm. Then a quality control of the labeling and the hybridization was performed. Hybridization and labeling steps successfully passed the quality controls for these experiments.
Data reduction, Excel file description: once normalized with Expression Console, data were transferred into a Microsoft Excel® file in order to go further into data reduction.
Calculation and tools were added in order to rank and sort data, and finally to support data interpretation. Detection thresholds in terms of fold change were defined and applied on normalized data.
Results are considered and presented or commented per gene (and not probe). A probe set is a collection of probes designed to interrogate a given sequence of a gene. For data interpretation, the most important relative expression value obtained with one probe is considered to be representative of the corresponding gene. The file contains the following data: • Relative expression (RE) for each sample, • Fold change calculation, • Gene information.

[1] = relative expression adjusted to detection limit (<20), NHDF, 24 h
[2] = signed value, Tables 13-14, NHDF

## C[C@H](NC(=O)[C@H](C)NC(=O)[C@@H](N)CCCCNCC(F)(F)[C@]1(O)O[C@H](CO)[C@H](O)[C@H](O)[C@H]1O)C(=O)O [Compound 1]
[1]
  REadj2, PCYT2: 188.93
  REadj2, PLD1: 176.07
  REadj2, PTPLA: 498.96
  REadj2, SOAT1: 390.22
  REadj2, SREBF1: 519.22
Relative expression adjusted to detection limit (<20), NHDF, 24 h, probe set 11716114_x_at
  REadj2, POR: 256.70
Relative expression adjusted to detection limit (<20), NHDF, 24 h, probe set 11716987_a_at
  REadj2, HMGCS1: 875.52
Relative expression adjusted to detection limit (<20), NHDF, 24 h, probe set 11717859_a_at
  REadj2, EBP: 582.73
Relative expression adjusted to detection limit (<20), NHDF, 24 h, probe set 11718366_s_at
  REadj2, FDPS: 2391.43
Relative expression adjusted to detection limit (<20), NHDF, 24 h, probe set 11719098_a_at
  REadj2, MVK: 135.62
Relative expression adjusted to detection limit (<20), NHDF, 24 h, probe set 11724792_a_at
  REadj2, PGS1: 118.91
Relative expression adjusted to detection limit (<20), NHDF, 24 h, probe set 11730180_s_at
  REadj2, KDSR: 1037.81
Relative expression adjusted to detection limit (<20), NHDF, 24 h, probe set 11730181_s_at
  REadj2, KDSR: 549.40
Relative expression adjusted to detection limit (<20), NHDF, 24 h, probe set 11736100_a_at
  REadj2, GBA: 445.83
Relative expression adjusted to detection limit (<20), NHDF, 24 h, probe set 11736285_a_at
  REadj2, CHKA: 104.91
Relative expression adjusted to detection limit (<20), NHDF, 24 h, probe set 11736286_a_at
  REadj2, CHKA: 120.28
Relative expression adjusted to detection limit (<20), NHDF, 24 h, probe set 11737039_a_at
  REadj2, PHLDB2: 119.06
Relative expression adjusted to detection limit (<20), NHDF, 24 h, probe set 11737041_a_at
  REadj2, PHLDB2: 128.19
Relative expression adjusted to detection limit (<20), NHDF, 24 h, probe set 11737042_s_at
  REadj2, PHLDB2: 120.07
Relative expression adjusted to detection limit (<20), NHDF, 24 h, probe set 11737043_x_at
  REadj2, PHLDB2: 178.68
Relative expression adjusted to detection limit (<20), NHDF, 24 h, probe set 11743916_a_at
  REadj2, NPC1: 361.48
Relative expression adjusted to detection limit (<20), NHDF, 24 h, probe set 11745459_a_at
  REadj2, FADS1///MIR1908: 1633.20
Relative expression adjusted to detection limit (<20), NHDF, 24 h, probe set 11746723_a_at
  REadj2, NPC1: 192.21
Relative expression adjusted to detection limit (<20), NHDF, 24 h, probe set 11747747_a_at
  REadj2, MVK: 83.27
Relative expression adjusted to detection limit (<20), NHDF, 24 h, probe set 11748368_x_at
  REadj2, POR: 269.37
Relative expression adjusted to detection limit (<20), NHDF, 24 h, probe set 11748428_a_at
  REadj2, PGS1: 84.52
Relative expression adjusted to detection limit (<20), NHDF, 24 h, probe set 11749332_x_at
  REadj2, EBP: 445.85
Relative expression adjusted to detection limit (<20), NHDF, 24 h, probe set 11750975_x_at
  REadj2, GBA: 439.06
Relative expression adjusted to detection limit (<20), NHDF, 24 h, probe set 11751085_a_at
  REadj2, GBA: 451.06
Relative expression adjusted to detection limit (<20), NHDF, 24 h, probe set 11751086_x_at
  REadj2, GBA: 338.51
Relative expression adjusted to detection limit (<20), NHDF, 24 h, probe set 11751627_a_at
  REadj2, KDSR: 533.05
Relative expression adjusted to detection limit (<20), NHDF, 24 h, probe set 11752670_a_at
  REadj2, FADS1///MIR1908: 2502.62
Relative expression adjusted to detection limit (<20), NHDF, 24 h, probe set 11753440_x_at
  REadj2, GBA: 229.00
Relative expression adjusted to detection limit (<20), NHDF, 24 h, probe set 11754918_s_at
  REadj2, HMGCS1: 929.88
Relative expression adjusted to detection limit (<20), NHDF, 24 h, probe set 11755251_x_at
  REadj2, FADS1///MIR1908: 1571.10
Relative expression adjusted to detection limit (<20), NHDF, 24 h, probe set 11758249_s_at
  REadj2, FDPS: 2098.38
[2]
  Fold change, ABCA1: 2.112
  Fold change, ABHD5: 2.634
  Fold change, ACAT2: 2.124
  Fold change, ACSS2: 2.288
  Fold change, ADORA2B: 2.461
  Fold change, AKR1B1: 4.194
  Fold change, AKR1C1/AKR1C2: 2.597
  Fold change, ALDH1A3: −3.504
  Fold change, ANGPT1: −2.510
  Fold change, CD9: 2.337
  Fold change, CH25H: −2.770
  Fold change, CHKA: 2.999
  Fold change, CLN3: 2.570
  Fold change, CYP19A1: 2.736
  Fold change, CYP51A1: 2.202
  Fold change, DHCR7: 3.675
  Fold change, DHCR24: 2.267
  Fold change, EBP: 2.685
  Fold change, EGR1: −2.928
  Fold change, FADS1: 4.196
  Fold change, FADS2: 2.642
  Fold change, FDPS: 2.104
  Fold change, FGF2: 2.008
  Fold change, FOS: −2.521
  Fold change, GBA: 3.016
  Fold change, GPER1: 2.031
  Fold change, GRP: −2.699
  Fold change, HMGCR: 2.018
  Fold change, HMOX1: 5.168
  Fold change, HSD3B7: 2.132
  Fold change, HSD17B7: 2.443
  Fold change, HTR2B: 2.118
  Fold change, IDI1: 2.013
  Fold change, IGFBP2: −2.717
  Fold change, INSIG1: 3.422
  Fold change, KDSR: 2.288
  Fold change, LDLR: 2.988
  Fold change, LPIN1: 2.458
  Fold change, LSS: 2.527
  Fold change, MAP3K8: 3.713
  Fold change, ME1: 2.548
  Fold change, MVD: 2.448
  Fold change, MVK: 2.082
  Fold change, NGF: −2.648
  Fold change, NPC1: 6.532
  Fold change, NRG1: −2.111
  Fold change, NSMAF: 2.624
  Fold change, NTN1: 2.832
  Fold change, PCYT2: 2.412
  Fold change, PDE5A: −3.902
  Fold change, PDK4: −2.280
  Fold change, PGS1: 2.410
  Fold change, PLAU: −2.785
  Fold change, PLD1: 2.155
  Fold change, POR: 2.200
  Fold change, PTGS1: 3.893
  Fold change, RAB27A: 2.279
  Fold change, RUNX1: 2.441
  Fold change, S1PR1: 2.651
  Fold change, SCD: 7.772
  Fold change, SEMA3A: −3.169
  Fold change, SERINC2: 2.635
  Fold change, SLC1A3: 4.715
  Fold change, SOAT1: 2.012
  Fold change, SOCS3: 3.734
  Fold change, SREBF1: 3.237
  Fold change, ST6GALNAC5: 2.080
  Fold change, STC1: 3.016
